Format: physicochemical
From the text: The slurry should be thoroughly agitated during preparation with a suitable device (like an electric lab stirrer). The desired temperature for heating the slurry will vary depending on the solubility of the active agent and the temperature that the active agent begins to degrade.

## Cl.N[C@H]1C(O)O[C@H](CO)[C@@H](O)[C@@H]1O (stereo partly shown) [Glucosamine HCl]
  temperature dependent solubility in water: greater than 60 °C

Source: US20080268036A1, “Co-processing of active pharmaceutical/nutraceutical ingredients” (JRS Pharma, priority 2007, published 2008)
